Values of other authors in patent publication US6977269B1, “Method of improving animal tissue quality” (Pioneer Hi-Bred International, Inc, priority 2001, dated 2005).
Read-outs that look alike come from different tables or passages of the source.

How the values were obtained:
[1] = compared with gamma-tocopherol; cited from earlier work
[2] = parameters: unit not given here; conditions: cited from earlier work

Compound: Cc1c(O)cc2c(c1C)OC(C)(C(=O)O)CC2 (centres unmarked) [6-hydroxy-2,7,8-trimethylchroman-2-carboxylic acid]
- water solubility [1]: more water soluble than gamma-tocopherol

Compound: vitamin E
- tissue level ([2]; 400 IU/KG per steer daily for 180 days): 3.3
- tissue level ([2]; 500 IU/KG per steer daily for 126 days): 2.5
- tissue level ([2]; 1300 IU/KG per steer daily for 44 days): 3.3
- tissue level ([2]; 2000 IU/KG per steer daily for 100 days): 6.1
